# Patent US20260014147A1, “STAT6 DEGRADERS” (Gilead Sciences, Inc., priority 2024, published 2026)
# Molecular target: T1, STAT6 (endogenous, HiBiT-tagged) in HeLa LgBiT clone 4.14 cells (Homo sapiens, UniProt P42226)
# T1 construct: These cells express endogenous STAT6; host or cells: HeLa LgBiT clone 4.14
# T1 sequence (P42226 1-847): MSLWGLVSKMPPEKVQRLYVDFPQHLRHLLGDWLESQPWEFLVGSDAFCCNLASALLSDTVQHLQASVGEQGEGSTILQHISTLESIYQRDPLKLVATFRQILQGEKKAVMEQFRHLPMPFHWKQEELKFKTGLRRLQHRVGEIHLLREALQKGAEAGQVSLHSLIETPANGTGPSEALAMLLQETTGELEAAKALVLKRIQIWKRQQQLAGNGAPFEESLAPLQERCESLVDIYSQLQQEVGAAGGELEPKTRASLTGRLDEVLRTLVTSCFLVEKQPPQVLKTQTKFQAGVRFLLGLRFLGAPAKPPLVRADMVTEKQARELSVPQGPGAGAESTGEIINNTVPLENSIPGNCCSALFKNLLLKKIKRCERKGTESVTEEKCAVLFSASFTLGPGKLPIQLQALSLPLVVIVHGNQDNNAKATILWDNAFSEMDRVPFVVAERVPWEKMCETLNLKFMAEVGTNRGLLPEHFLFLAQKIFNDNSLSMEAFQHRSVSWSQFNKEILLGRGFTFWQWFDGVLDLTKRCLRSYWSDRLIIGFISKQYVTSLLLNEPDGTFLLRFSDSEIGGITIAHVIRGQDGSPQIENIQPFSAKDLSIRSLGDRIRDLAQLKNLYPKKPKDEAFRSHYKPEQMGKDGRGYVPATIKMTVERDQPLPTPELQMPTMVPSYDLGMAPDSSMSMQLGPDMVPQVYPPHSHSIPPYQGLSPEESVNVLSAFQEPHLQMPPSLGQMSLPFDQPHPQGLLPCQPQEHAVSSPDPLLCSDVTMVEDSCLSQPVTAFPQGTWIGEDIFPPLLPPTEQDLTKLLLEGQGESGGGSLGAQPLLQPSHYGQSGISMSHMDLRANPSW
# Experiment: STAT6 Degrader Assay (HiBiT based, HeLa LgBiT clone 4.14 cells, luminescence, DC50)
# Format: cell-based
# Settings: DC50 provided for test compounds with >80% Emax, geometric mean, read-out: STAT6 degradation DC50
# Procedure: This was a HiBit based assay. A HeLa cell line stably transfected with a small protein, LgBit (Large Bit) was obtained from Promega. These cells express endogenous STAT6. A small 11 amino acid gene sequence (HiBiT) was inserted in the STAT6 gene using CRISPR technology. Once STAT6 protein is expressed in the cells, the HiBiT sequence will bind the LgBit in the cells resulting in a functional NanoBiT protein, giving a luminescent tag to STAT6. Single cell clones were prepared and the clone 4.14 was selected for the assay based on that clone showing high luminescence, high STAT6 phosphorylation upon stimulation with IL-4, and inhibition of luminescence when cells were treated with STAT6 siRNA. HeLa LgBiT clone 4.14 cells were suspended in DMEM with 10% FCS, 1% Pen/Strep, Na-pyrovate and Hygromycin B, at a concentration of […]. 5000 cells were added pr well of a 384 well plate and 20 nL of compound was added by Echo® liquid handler. NN6394A (terfenadine, a toxic compound) was added to control wells at 50 µM concentration to establish the assay window. In these wells the cells are dead which equals 100% degradation of STAT6. After 4-24 h of incubation at 37° C. under 5% CO2/95% air, […] substrate (Nano-GLO®) was added to the wells and the plates were centrifuged and incubated for 0.5 h. The luminescence in the wells as a measure of non-degraded STAT6 was measured in a plate reader (BMG Pherastar FSX). The dose-response curves for Examples 2a2, 2t1, 2 h3, and 2r1 are shown below (where percent degradation is plotted vs. test compound concentration in M on a log-scale).
row,DC50,Compound
1,2.7 nM,"C[C@@H](c1cc2c(-c3ccc4[nH]ncc4c3)ccnc2n1C)N1CCC(c2ccc(C(=O)N3CCC(CN4CCN(c5ccc(NC6CCC(=O)NC6=O)cc5F)CC4)CC3)cc2)CC1 (stereo partly drawn) [Example 2c17, 3-((4-(4-((1-(4-(1-((S)-1-(4-(1H-indazol-5-yl)-1-methyl-1H-pyrrolo[2,3-b]pyridin-2-yl)-ethyl)piperidin-4-yl)benzoyl)piperidin-4-yl)methyl)piperazin-1-yl)-3-fluorophenyl)amino)piperidine-2,6-dione]"
2,0.7 nM,"COc1cc(C2CCN(Cc3cc4n(n3)CCN(C(=O)c3ccc(C5CCN([C@@H](C)c6cc7c(-c8ccc(N)nc8)ccnc7n6C)CC5)cc3)C4)CC2)ccc1NC1CCC(=O)NC1=O (stereo partly drawn) [Example 2c44, 3-((4-(1-((5-(4-(1-((S)-1-(4-(6-aminopyridin-3-yl)-1-methyl-1H-pyrrolo[2,3-b]pyridin-2-yl)ethyl)piperidin-4-yl)benzoyl)-4,5,6,7-tetrahydropyrazolo[1,5-a]pyrazin-2-yl)methyl)piperidin-4-yl)-2-methoxyphenyl)amino)piperidine-2,6-dione]"

# Same assay, conditions: Emax provided for test compounds with <80% Emax (and 2c15), geometric mean, read-out: STAT6 degradation Emax
row,Compound,Emax
1,"Cc1cc(C(=O)N2CCC(CN3CCN(c4ccc(NC5CCC(=O)NC5=O)cc4F)CC3)CC2)cc(C)c1C1=CCN(Cc2cc3c(-c4ccc(N)nc4)ccnc3n2C)CC1 (stereo not shown) [Example 2c15, 3-((4-(4-((1-(4-(1-((4-(6-aminopyridin-3-yl)-1-methyl-1H-pyrrolo[2,3-b]pyridin-2-yl)methyl)-1,2,3,6-tetrahydropyridin-4-yl)-3,5-dimethylbenzoyl)piperidin-4-yl)methyl)piperazin-1-yl)-3-fluorophenyl)amino)piperidine-2,6-dione]",80 to 90%
2,"Cn1c(CN2CCC(c3ccc(C(=O)N4CCC(CN5CCN(c6c(F)cc(NC7CCC(=O)NC7=O)cc6F)CC5)CC4)cc3)CC2)cc2c(-c3ccc4[nH]ncc4c3)ccnc21 (stereo not shown) [Example 2c34, 3-((4-(4-((1-(4-(1-((4-(1H-indazol-5-yl)-1-methyl-1H-pyrrolo[2,3-b]pyridin-2-yl)methyl)-piperidin-4-yl)benzoyl)piperidin-4-yl)methyl)piperazin-1-yl)-3,5-difluorophenyl)amino)piperidine-2,6-dione]",70 to 80%

# Continued, values first:
row,Emax,Compound
1,< 20%,"Cn1c(CN2CC=C(c3ccc(C(=O)N4CCn5nc(CN6CCC(c7ccc(NC8CCC(=O)NC8=O)cc7F)CC6)cc5C4)cn3)CC2)cc2c(-c3ccc(N)nc3)ccnc21 (stereo not shown) [Example 2c37, 3-((4-(1-((5-(1′-((4-(6-aminopyridin-3-yl)-1-methyl-1H-pyrrolo[2,3-b]pyridin-2-yl)methyl)-1′, 2′, 3′, 6′-tetrahydro-[2,4′-bipyridine]-5-carbonyl)-4,5,6,7-tetrahydropyrazolo[1,5-a]pyrazin-2-yl)methyl)piperidin-4-yl)-3-fluorophenyl)amino)piperidine-2,6-dione]"
2,< 20%,"Cn1c(CN2CC=C(c3ccc(C(=O)N4CCn5nc(CN6CCC(c7ccc(NC8CCC(=O)NC8=O)cc7F)CC6)cc5C4)cn3)CC2)cc2c(-c3ccc(N)nn3)ccnc21 (stereo not shown) [Example 2c38, 3-((4-(1-((5-(1′-((4-(6-aminopyridazin-3-yl)-1-methyl-1H-pyrrolo[2,3-b]pyridin-2-yl)methyl)-1′, 2′, 3′, 6′-tetrahydro-[2,4′-bipyridine]-5-carbonyl)-4,5,6,7-tetrahydropyrazolo[1,5-a]pyrazin-2-yl)methyl)piperidin-4-yl)-3-fluorophenyl)amino)piperidine-2,6-dione]"
3,< 20%,"Cn1c(CN2CCN(c3ccc(C(=O)N4CCC(CN5CCN(c6ccc(NC7CCC(=O)NC7=O)cc6F)CC5)CC4)cc3)CC2)cc2c(-c3ccc(N)nc3)ccnc21 (stereo not shown) [Example 2c39, 3-((4-(4-((1-(4-(4-((4-(6-aminopyridin-3-yl)-1-methyl-1H-pyrrolo[2,3-b]pyridin-2-yl)methyl)piperazin-1-yl)benzoyl)piperidin-4-yl)methyl)piperazin-1-yl)-3-fluorophenyl)amino)piperidine-2,6-dione]"
